These results are taken from patent US20230416275A1, “MODULATORS OF CYSTIC FIBROSIS TRANSMEMBRANE CONDUCTANCE REGULATOR” (VERTEX PHARMACEUTICALS INCORPORATED, priority 2020, published 2023).

For data set [1] the following is noted: amide bond; 14-membered ring; HATU/DIEA; DMF; 3 steps.
Another data set has as its target CFTR (Homo sapiens, UniProt P13569). Kind of data set: standard Ussing Chamber Assay for CFTR potentiator activity. Type of data set: cell-based. The protocol: tert-Butyl N-[(6R,12R)-6-benzyloxy-12-methyl-6,15-bis(trifluoromethyl)-13,19-dioxa-3,4,18-triazatricyclo[12.3.1.12,5]nonadeca-1(18),2,4,14,16-pentaen-17-yl]-N-tert-butoxycarbonyl-carbamate (8.6 g, 11.77 mmol) was dissolved in ethanol (172 mL) then the flask was cycled 3 times between vacuum/nitrogen. Treated the mixture with 10% Pd/C (50% water wet, 1.8 g of 5% w/w, 0.8457 mmol) then cycled 3 times between vacuum/nitrogen and 3 times between vacuum/hydrogen and then stirred vigorously under hydrogen (balloon) at room temperature for 18 hours. The mixture was cycled 3 times between vacuum/nitrogen, filtered over Celite, washing with ethanol, and then the filtrate was evaporated to give 7.3 g of tert-butyl N-tert-butoxycarbonyl-N-[(6R,12R)-6-hydroxy-12-methyl-6,15-bis(trifluoromethyl)-13,19-dioxa-3,4,18-triazatricyclo[12.3.1.12,5]nonadeca-1(18),2,4,14,16-pentaen-17-yl]carbamate an off-white solid. 1H NMR and MS confirmed the expected product. CFTR modulatory activity was confirmed using a standard Ussing Chamber Assay for CFTR potentiator activity.

The next data set has as its target T1, F508del in NIH 3T3 cells (Homo sapiens, UniProt P13569, DEL508-508).
T1 construct: expressed in transfected cells
The data set can be described thus: 3T3 assay: membrane potential optical assay for F508del correction. The data set is classed as cell-based, mouse. The conditions noted are these: for EC50: F508del NIH 3T3 cells, compound incubation 18-24 hours at 37° C., forskolin activation, read-out: 3T3 EC50; for Emax: NIH3T3, F508del NIH 3T3 cells, efficacy compared to lumacaftor in combination with acutely added 300 nM Ivacaftor, read-out: 3T3 Max Activity (%). An outline of the steps:
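NIH3T3 mouse fibroblasts stably expressing F508del incubated with corrector compounds at a range of concentrations for 16-24 h at 37 °C, then loaded with voltage-sensing redistribution dye. Single addition of forskolin with Cl− gradient (chloride-free gluconate bath vs. NaCl bath, pH 7.4); membrane potential change read by fluorescence on FLIPR.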

The target in data set [2] is T2, CFTR-mediated chloride transport in human intestinal epithelial enteroid cells (Homo sapiens, UniProt P13569). Kind of data set: Membrane potential dye, Enteroid Assay A. Particulars: for Ent. A Max Activity (%): % of chloride transport of triple combination control (3 μM N-[(6-amino-2-pyridyl)sulfonyl]-6-(3-fluoro-5-isobutoxy-phenyl)-2-[(4S)-2,2,4-trimethylpyrrolidin-1-yl]pyridine-3-carboxamide, 3 μM tezacaftor, 300 nM acute ivacaftor); for EC50: enteroid cells, 18-24 hours incubation, acute 10 μM forskolin and 300 nM ivacaftor, read-out: Ent. A EC50. The data set is classed as cell-based. Put shortly: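 Enteroids seeded at 5000 cells/well were exposed to test compound in IEMM for 18-24 h at 37 °C, then loaded with methyl oxonol membrane potential dye. Chloride transport was triggered in chloride-free buffer with 10 μM forskolin, 100 μM IBMX and 300 nM Compound III, read by fluorescence for 15 min and expressed as % of a triple-combination control.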
T2 sequence (P13569 with tags, fused parts or gaps DEL508-508): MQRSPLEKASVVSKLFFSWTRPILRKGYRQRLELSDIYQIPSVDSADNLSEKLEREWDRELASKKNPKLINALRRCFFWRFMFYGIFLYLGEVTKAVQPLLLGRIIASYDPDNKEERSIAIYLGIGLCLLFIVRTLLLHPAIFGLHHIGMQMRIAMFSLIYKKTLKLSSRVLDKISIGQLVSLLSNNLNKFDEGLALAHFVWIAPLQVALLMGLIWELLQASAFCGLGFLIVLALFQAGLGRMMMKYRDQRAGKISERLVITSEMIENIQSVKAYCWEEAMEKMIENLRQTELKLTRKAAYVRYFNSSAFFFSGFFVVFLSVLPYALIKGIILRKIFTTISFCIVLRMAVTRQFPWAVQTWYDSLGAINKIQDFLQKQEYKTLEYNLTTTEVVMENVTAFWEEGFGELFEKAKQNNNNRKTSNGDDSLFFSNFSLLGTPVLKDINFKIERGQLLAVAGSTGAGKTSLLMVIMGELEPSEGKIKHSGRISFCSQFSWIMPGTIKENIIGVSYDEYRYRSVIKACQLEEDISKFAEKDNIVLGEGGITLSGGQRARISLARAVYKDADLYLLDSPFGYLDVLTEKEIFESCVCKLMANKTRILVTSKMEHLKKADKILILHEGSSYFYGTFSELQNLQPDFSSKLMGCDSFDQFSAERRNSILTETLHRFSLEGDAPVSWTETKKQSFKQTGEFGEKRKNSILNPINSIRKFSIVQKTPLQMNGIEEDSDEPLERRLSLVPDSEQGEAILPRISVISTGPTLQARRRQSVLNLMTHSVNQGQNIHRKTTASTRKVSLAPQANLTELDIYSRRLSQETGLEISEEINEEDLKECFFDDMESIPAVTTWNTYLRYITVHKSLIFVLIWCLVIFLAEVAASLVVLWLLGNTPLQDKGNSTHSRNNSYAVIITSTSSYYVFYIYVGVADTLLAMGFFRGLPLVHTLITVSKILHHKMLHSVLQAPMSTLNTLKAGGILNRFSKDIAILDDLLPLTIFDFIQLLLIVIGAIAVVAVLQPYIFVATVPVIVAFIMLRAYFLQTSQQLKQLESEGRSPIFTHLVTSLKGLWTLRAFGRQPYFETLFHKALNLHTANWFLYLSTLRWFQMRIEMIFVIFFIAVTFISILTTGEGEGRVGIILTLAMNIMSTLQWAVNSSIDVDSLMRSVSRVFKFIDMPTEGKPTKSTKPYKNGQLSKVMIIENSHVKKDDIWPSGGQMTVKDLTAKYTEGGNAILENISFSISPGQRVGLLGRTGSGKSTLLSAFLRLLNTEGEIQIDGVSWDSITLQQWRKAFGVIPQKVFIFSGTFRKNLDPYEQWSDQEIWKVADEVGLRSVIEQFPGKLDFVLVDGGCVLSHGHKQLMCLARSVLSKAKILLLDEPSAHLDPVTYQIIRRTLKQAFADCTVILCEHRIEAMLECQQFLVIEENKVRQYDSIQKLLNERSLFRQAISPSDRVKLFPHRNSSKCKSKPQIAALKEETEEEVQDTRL

The target of data set [3] is T2, CFTR-mediated chloride transport in human intestinal epithelial enteroid cells. Kind of data set: Membrane potential dye, Enteroid Assay B. The conditions noted are these: for Ent. B Max Activity (%): % of chloride transport of triple combination control (1 μM (14S)-8-[3-(2-{Dispiro[2.0.2.1]heptan-7-yl}ethoxy)-1H-pyrazol-1-yl]-12,12-dimethyl-... macrocycle, 3 μM tezacaftor, 300 nM acute ivacaftor); for EC50: enteroid cells, 18-24 hours incubation, acute 10 μM forskolin and 300 nM ivacaftor, read-out: Ent. B EC50. Type of data set: cell-based. On the procedure:
Base medium (ADF+++) consisted of Advanced DMEM/Ham's F12, 2 mM Glutamax, 10 mM HEPES, […] penicillin/streptomycin.
Intestinal enteroid maintenance medium (IEMM) consisted of ADF+++, 1×B27 supplement, 1×N2 supplement, 1.25 mM N-acetyl cysteine, 10 mM Nicotinamide, 50 ng/mL hEGF, 10 nM Gastrin, 1 μg/mL hR-spondin-1, 100 ng/mL hNoggin, TGF-b type 1 inhibitor A-83-01, 100 μg/mL Primocin, 10 μM P38 MAPK inhibitor SB202190.
Bath 1 Buffer consisted of 1 mM MgCl2, 160 mM NaCl, 4.5 mM KCl, 10 mM HEPES, 10 mM Glucose, 2 mM CaCl2.
Chloride Free Buffer consisted of 1 mM Magnesium Gluconate, 2 mM Calcium Gluconate, 4.5 mM Potassium Gluconate, 160 mM Sodium Gluconate, 10 mM HEPES, 10 mM Glucose.
Bath1 Dye Solution consisted of Bath 1 Buffer, 0.04% Pluronic F127, 20 μM Methyl Oxonol, 30 μM CaCCinh-A01, 30 μM Chicago Sky Blue.
Chloride Free Dye Solution consisted of Chloride Free Buffer, 0.04% Pluronic F127, 20 μM Methyl Oxonol, 30 μM CaCCinh-A01, 30 μM Chicago Sky Blue.
Chloride Free Dye Stimulation Solution consisted of Chloride Free Dye Solution, 10 μM forskolin, 100 μM IBMX, and 300 nM Compound III.
Human intestinal epithelial enteroid cells were obtained from the Hubrecht Institute for Developmental Biology and Stem Cell Research, Utrecht, The Netherlands and expanded in T-Flasks as previously described (Dekkers J F, Wiegerinck C L, de Jonge H R, Bronsveld I, Janssens H M, de Winter-de Groot K M, Brandsma A M, de Jong N W M, Bijvelds M J C, Scholte B J, Nieuwenhuis E E S, van den Brink S, Clevers H, van der Ent C K, Middendorp S and M Beekman J M. A functional CFTR assay using primary cystic fibrosis intestinal organoids. Nat Med. 2013 July; 19(7):939-45).
c. Enteroid Cell Harvesting and Seeding
Cells were recovered in cell recovery solution, collected by centrifugation at 650 rpm for 5 minutes at 4° C., resuspended in TrypLE and incubated for 5 minutes at 37° C. Cells were then collected by centrifugation at 650 rpm for 5 minutes at 4° C. and resuspended in IEMM containing 10 μM ROCK inhibitor (RI). The cell suspension was passed through a 40 μm cell strainer and resuspended at 1×10^6 cells/mL in IEMM containing 10 μM RI. Cells were seeded at 5000 cells/well into multi-well plates and incubated for overnight at 37° C., 95% humidity and 5% CO2 prior to assay.
e. Membrane Potential Dye, Enteroid Assay B
Enteroid cells were incubated with test compound in IEMM for 18-24 hours at 37° C., 95% humidity and 5% CO2. […] Briefly, cells were washed 5 times in Bath 1 Buffer. Bath 1 Dye Solution was added and the cells were incubated for 25 minutes at room temperature. Following dye incubation, cells were washed 3 times in Chloride Free Dye Solution. Chloride transport was initiated by addition of Chloride Free Dye Stimulation Solution and the fluorescence signal was read for 15 minutes. […] Chloride transport was then expressed as a percentage of the chloride transport following treatment with 1 μM (14S)-8-[3-(2-{Dispiro[2.0.2.1]heptan-7-yl}ethoxy)-1H-pyrazol-1-yl]-12,12-dimethyl-2λ^6-thia-3,9,11,18,23-pentaazatetracyclo[17.3.1.111,14.05,10]tetracosa-1(22),5,7,9,19(23),20-hexaene-2,2,4-trione, 3 μM (R)-1-(2,2-difluorobenzo[d][1,3]dioxol-5-yl)-N-(1-(2,3-dihydroxypropyl)-6-fluoro-2-(1-hydroxy-2-methylpropan-2-yl)-1H-indol-5-yl)cyclopropanecarboxamide and 300 nM acute N-[2,4-bis(1,1-dimethylethyl)-5-hydroxyphenyl]-1,4-dihydro-4-oxoquinoline-3-carboxamide triple combination control (% Activity).

Like-named read-outs stand apart in the source and are kept apart here. Where only a bound is given, the exact number is not on record here.

T1 sequence (P13569 with tags, fused parts or gaps DEL508-508): as above
Chain of CFTR (P13569 whole entry, species assumed): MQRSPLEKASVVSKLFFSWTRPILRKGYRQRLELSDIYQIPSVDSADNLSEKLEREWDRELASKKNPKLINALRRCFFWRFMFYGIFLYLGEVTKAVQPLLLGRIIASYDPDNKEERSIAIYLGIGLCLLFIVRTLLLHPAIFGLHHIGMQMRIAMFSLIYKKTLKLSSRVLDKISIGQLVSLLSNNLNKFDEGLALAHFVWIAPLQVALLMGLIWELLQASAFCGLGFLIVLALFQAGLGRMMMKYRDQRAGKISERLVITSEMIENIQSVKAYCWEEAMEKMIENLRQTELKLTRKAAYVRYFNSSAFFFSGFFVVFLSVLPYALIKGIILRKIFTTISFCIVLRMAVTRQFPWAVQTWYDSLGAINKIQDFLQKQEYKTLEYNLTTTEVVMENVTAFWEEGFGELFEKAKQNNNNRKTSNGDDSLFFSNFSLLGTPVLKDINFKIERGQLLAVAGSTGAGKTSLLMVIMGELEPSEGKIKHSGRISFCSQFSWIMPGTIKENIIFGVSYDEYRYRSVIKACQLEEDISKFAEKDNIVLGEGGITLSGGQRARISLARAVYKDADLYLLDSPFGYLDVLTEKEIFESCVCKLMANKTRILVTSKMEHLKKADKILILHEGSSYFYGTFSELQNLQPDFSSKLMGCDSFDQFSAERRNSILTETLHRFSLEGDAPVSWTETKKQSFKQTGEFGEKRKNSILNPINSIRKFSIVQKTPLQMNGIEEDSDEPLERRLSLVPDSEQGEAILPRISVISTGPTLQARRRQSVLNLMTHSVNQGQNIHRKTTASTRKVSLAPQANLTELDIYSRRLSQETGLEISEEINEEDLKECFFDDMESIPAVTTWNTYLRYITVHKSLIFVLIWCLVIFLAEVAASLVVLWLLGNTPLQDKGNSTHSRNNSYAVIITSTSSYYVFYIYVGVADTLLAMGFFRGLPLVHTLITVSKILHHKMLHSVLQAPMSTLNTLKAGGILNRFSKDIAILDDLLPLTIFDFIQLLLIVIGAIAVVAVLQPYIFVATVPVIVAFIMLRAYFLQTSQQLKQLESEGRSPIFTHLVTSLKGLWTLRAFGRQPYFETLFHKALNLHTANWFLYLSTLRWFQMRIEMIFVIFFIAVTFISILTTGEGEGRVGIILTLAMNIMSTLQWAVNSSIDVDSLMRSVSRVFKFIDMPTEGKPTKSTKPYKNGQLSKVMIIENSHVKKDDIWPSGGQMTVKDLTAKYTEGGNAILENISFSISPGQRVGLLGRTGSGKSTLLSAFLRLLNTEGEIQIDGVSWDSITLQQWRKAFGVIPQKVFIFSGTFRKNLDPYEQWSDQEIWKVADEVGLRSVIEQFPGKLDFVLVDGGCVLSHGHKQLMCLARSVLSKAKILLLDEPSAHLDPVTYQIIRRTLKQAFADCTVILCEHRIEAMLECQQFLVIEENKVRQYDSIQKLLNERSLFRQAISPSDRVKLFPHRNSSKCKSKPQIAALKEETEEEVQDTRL

Compound `Cc1cccc(C)c1-c1cc2nc(n1)NS(=O)(=O)c1cccc(c1)NC(=O)c1cc(ccc1Br)O2` came in with a ring closure, isolated yield in data set [1] of 20%.
The same measure, in the same setting: as for `Cc1cccc(C)c1-c1cc2nc(n1)NS(=O)(=O)c1cccc(c1)NC(=O)c1cccc(c1C)O2`, the figure is 33%.
Regarding `C[C@@H]1CCCCC[C@](O)(C(F)(F)F)C2=NN=C(O2)c2nc(c(C(F)(F)F)cc2N)O1` [(6R,12R)-17-amino-12-methyl-6,15-bis(trifluoromethyl)-13,19-dioxa-3,4,18-triazatricyclo[12.3.1.12,5]nonadeca-1(18),2,4,14,16-pentaen-6-ol], on CFTR, the CFTR modulatory activity entry was “confirmed”.
For `Cc1cccc(C)c1-c1cc2nc(n1)NS(=O)(=O)c1cccc(c1)NC(=O)c1cc(ccc1Cl)O2` [Compound 55, 18-chloro-5-(2,6-dimethylphenyl)-9,9-dioxo-2-oxa-9λ^6-thia-6,8,15,23-tetraazatetracyclo[15.3.1.13,7.110,14]tricosa-1(21),3,5,7(23),10(22),11,13,17,19-nonaen-16-one], the ring closure, yield after HPLC (from Cc1cccc(C)c1-c1cc(Oc2ccc(Cl)c(C(=O)O)c2)nc(NS(=O)(=O)c2cccc(N)c2)n1, amide bond, 14-membered ring, HATU/DIEA, 1.0 h) was determined as 38%. At F508del in NIH 3T3 cells, the half-maximal effective concentration (EC50) is under 1000 nM and the Emax was over 60%. For the same compound, in data set [2], the “Ent. A Max Activity (%)” value is “+++ (+++ is >60%)” and the EC50 fell in the range of 1000 to 3000 nM.
Where the note is “from Cc1cccc(C)c1-c1cc(Oc2cccc(CCCC(=O)O)c2)nc(NS(=O)(=O)c2cccc(N)c2)n1, amide bond, 17-membered ring, HATU/DIEA, DMF, 56.8 mM, 0.033 h”, `Cc1cccc(C)c1-c1cc2nc(n1)NS(=O)(=O)c1cccc(c1)NC(=O)CCCc1cccc(c1)O2` [Compound 65, 5-(2,6-Dimethylphenyl)-9,9-dioxo-2-oxa-9λ^6-thia-6,8,15,26-tetraazatetracyclo[18.3.1.13,7.110,14]hexacosa-1(23),3,5,7(26),10(25),11,13,20(24),21-nonaen-16-one] showed a ring closure, yield after HPLC of 28%. At F508del in NIH 3T3 cells, the EC50 was under 1000 nM and the Emax is over 60%. Also, in data set [2], the “Ent. A Max Activity (%)” value is on record as “+++ (+++ is >60%)” and the EC50 lay within 1000 to 3000 nM.
Under “amide bond, 16-membered ring, none (thermal, isolated OPfp ester), NMP, 67.6 mM, 100.0 °C, 4 steps”, `Cc1ccc2cc1Oc1cc(-c3c(C)cccc3C)nc(n1)NS(=O)(=O)c1cccc(c1)NC(=O)CC2` [Compound 66, 5-(2,6-Dimethylphenyl)-22-methyl-9,9-dioxo-2-oxa-9λ^6-thia-6,8,15,25-tetraazatetracyclo[17.3.1.13,7.110,14]pentacosa-1(22),3,5,7(25),10(24),11,13,19(23),20-nonaen-16-one] registered a ring closure, yield after HPLC of 6%. At F508del in NIH 3T3 cells, the EC50 was under 1000 nM and the Emax is over 60%. Moreover, in data set [2], the “Ent. A Max Activity (%)” value is reported as “+++ (+++ is >60%)” and the EC50 was 1000 to 3000 nM.
Compound `Cc1cccc(C)c1-c1cc2cc(n1)NS(=O)(=O)c1cccc(c1)NC(=O)c1cccc(c1)O2` [Compound 77, 5-(2,6-Dimethylphenyl)-9,9-dioxo-2-oxa-9λ^6-thia-6,8,15-triazatetracyclo[15.3.1.13,7.110,14]tricosa-1(20),3,5,7(23),10(22),11,13,17(21),18-nonaen-16-one] showed a ring closure, yield after HPLC (amide bond, 14-membered ring, HATU/DIEA, DMF, 130.0 mM) of 60%. Moreover, at F508del in NIH 3T3 cells, the EC50 was under 1000 nM and the Emax was over 60%. Moreover, in data set [2], the “Ent. A Max Activity (%)” value was “++ (++ is 30-60%)” and the EC50 lay within 3000 to 30000 nM.
As to `Cc1cccc(C)c1-c1cc2nc(n1)NS(=O)(=O)c1cccc(c1)COC1CC(CN(C(=O)OC(C)(C)C)C1)O2` (stereo not shown) [Compound 119, tert-Butyl 19-(2,6-dimethylphenyl)-15,15-dioxo-2,8-dioxa-15λ^6-thia-5,16,18,21-tetraazatetracyclo[15.3.1.13,7.110,14]tricosa-1(21),10,12,14(22),17,19-hexaene-5-carboxylate], the ring closure, yield after HPLC (from tert-butyl 3,5-dihydroxypiperidine-1-carboxylate + 3-(bromomethyl)-N-[4-chloro-6-(2,6-dimethylphenyl)pyrimidin-2-yl]benzenesulfonamide?, snar bond, 14-membered ring, NaH, DMF, 50.0 mM, 2 steps) came out at 15%. Also, the “Ent. A Max Activity (%)” value in data set [2] is listed as “+ (+ is <30%)”.
On to `Cc1cccc(C)c1-c1cc2nc(n1)NS(=O)(=O)c1cccc(c1)OC(Cc1ccccc1)CCO2` (stereo not shown) [Compound 120], for which, in data set [3], the “Ent. B Max Activity (%)” value is “++ (++ is 30-60%)” and the EC50 is under 1000 nM.
On the same counts, the results for `Cc1cccc(C)c1-c1cc2nc(n1)NS(=O)(=O)c1cccc(c1)OC(c1ccccc1)CCO2` (stereo not shown) [Compound 121] are “+++ (+++ is >60%)” and under 1000 nM.
On the same counts, the results for `Cc1cccc(C)c1-c1cc2nc(n1)NS(=O)(=O)c1cccc(c1)OCCCO2` [Compound 122] are “+ (+ is <30%)” and 3000 to 30000 nM.

A word on the EC50: it is the midpoint of the concentration-response curve.
